# Data from PMC9712658, “Structural analysis of the 2-oxoglutarate binding site of the circadian rhythm linked oxygenase JMJD5” (Scientific Reports, 2022).
# Target: T1, full-length JMJD5 (aa 1–416, JMJD5^FL) (Homo sapiens, UniProt Q8N371)
# T1 construct: 10 µM full-length JMJD5 (aa 1–416); His6 (N); made in house; host or cells: Escherichia coli Rosetta2(DE3)-pLysS
# Experiment: JMJD5 inhibition assay by MALDI-TOF MS (hydroxylation of RpS6_129-144 peptide)
# Format: biochemical
# Details: 10 µM JMJD5^FL, 100 µM Fe(II), 400 µM ascorbate, 50 µM 2OG, 100 µM RpS6_129-144, inhibitor 0–10 mM; mean (n = 3) ± SD
# Text: To explore inhibition involving orthosteric 2OG ligand binding in the JMJD5 2OG pocket, we initially screened a focused set of compounds comprising relatively close 2OG mimetics, tricarboxylic acid (TCA) cycle intermediates, hypoxia inducible factor (HIF) prolyl hydroxylase (PHD) inhibitors, and JmjC histone demethylase (KDM) inhibitors (Supplementary Fig. S1).
# […] Hydroxylation of RpS6 peptide was monitored by MALDI-TOF MS and intensity of hydroxylated peak was quantified to determine the extent of inhibition caused by inhibitor.
# T1 sequence (Q8N371 whole entry, the tested form may be a part): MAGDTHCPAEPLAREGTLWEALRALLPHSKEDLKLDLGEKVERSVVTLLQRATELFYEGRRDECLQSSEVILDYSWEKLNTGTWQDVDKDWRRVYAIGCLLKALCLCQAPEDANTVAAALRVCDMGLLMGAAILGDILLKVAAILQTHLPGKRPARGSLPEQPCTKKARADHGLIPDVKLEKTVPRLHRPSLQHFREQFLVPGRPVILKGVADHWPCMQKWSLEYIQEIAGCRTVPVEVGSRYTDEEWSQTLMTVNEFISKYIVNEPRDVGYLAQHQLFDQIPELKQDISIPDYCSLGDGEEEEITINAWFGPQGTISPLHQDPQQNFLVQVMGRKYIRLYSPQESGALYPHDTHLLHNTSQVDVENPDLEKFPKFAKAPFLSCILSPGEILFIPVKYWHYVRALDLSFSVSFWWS
row,IC50 [µM],Compound
1,66 ± 1.5,"O=C(O)c1ccnc(-c2cc(C(=O)O)ccn2)c1 [2.4-BPDCA, bipyridinyl-2,4-dicarboxylate]"
2,288 ± 1.5,O=C(O)CNC(=O)c1ncc(-c2cccc(F)c2)cc1O [AKB-6899]
3,820 ± 1.8,O=C(O)CC(O)(CC(=O)O)C(=O)O [Citrate]
4,1268 ± 1.5,"O=C(O)CC[C@@H](O)C(=O)O [D-2HG, D-2-hydroxyglutarate]"
5,239 ± 1.9,Cc1nc(C(=O)NCC(=O)O)c(O)c2ccc(Oc3ccccc3)cc12 [FG4592]
6,96 ± 1.7,"O=C(O)c1ccc(O)c2ncccc12 [IOX1, 5-carboxy-8-hydroxyquinoline]"
7,621 ± 1.4,CCN(CCN(C)C)C(=O)CNCc1cc(C(=O)O)ccn1 [KDM5-C49]
8,340 ± 1.3,"O=C(O)CC[C@H](O)C(=O)O [L-2HG, L-2-hydroxyglutarate]"
9,15 ± 1.4,CN(C)CCCNC(=O)c1ccc(-c2cc(O)c3ncccc3c2)cc1 [ML-324]
10,1604 ± 1.4,O=C(O)CC(O)C(=O)O (stereo not shown) [Malate]
11,6 ± 1.4,"O=C(O)CNC(=O)C(=O)O [NOG, N-oxalylglycine]"
12,85 ± 1.4,O=C(O)CC(=O)C(=O)O [Oxaloacetate]
13,500 ± 1.6,CC(=O)C(=O)O [Pyruvate]
14,840 ± 1.4,O=C(O)CCC(=O)O [Succinate]

row,Compound,IC50 [µM]
1,O=C(O)CCNc1cc(N2CCc3ccccc3CC2)nc(-c2ccccn2)n1 [GSK-J1],67 ± 1.5

# Same assay, conditions: screen at 0.1, 1 and 10 mM and/or IC50 determination
row,Compound,JMJD5 inhibition (in words)
1,CN(C)NC(=O)CCC(=O)O [daminozide],"Neither daminozide (a plant growth regulator that inhibits the JmjC KDM 2/7 oxygenases[56]), nor its structural derivative 7 appear to inhibit JMJD5"
